# What was measured:
# HIF [1] = assay: HIF reporter assay (HIF-activity-dependent Firefly-Luciferase) in 661W cells with CoCl2; type: cell-based, mouse; details: for cytotoxicity (endogenous control CMV-Renilla-Luciferase activity): CoCl2; for HIF activity (HIF inhibitory activity): CoCl2 200 μM, luminescence 24 hours after CoCl2
# Protocol: (§1) The HIF-activity-dependent Firefly-Luciferase and endogenous control CMV-Renilla-Luciferase were both transgenic into mouse fibroblast cell line (NIH3T3) and mouse retinal […] cell line (661 W) using lentiviruses to generate stable expression lines. HIF can be stabilized by adding cobalt chloride (CoCl2), a PHD inhibitor, to the cells, and luciferin can be added to obtain a luminescent signal correlating with HIF activity. Samples of various natural products were added to the cells to confirm the HIF inhibitory effect of the candidate on cobalt chloride-induced HIF activity.
# (§2) Specifically, 1×10^4 of NIH3T3 cells and 0.8×10^4 of 661 W cells were seeded on a 96-well plate with the above cell lines. After cells were engrafted to the bottom of the plate, HIF-activity was induced by adding CoCl2 at 200 μM. The luminescence strength was measured 24 hours after the CoCl2 was added using a Dual-Glo Luciferase assay system manufactured by Promega Corporation. The candidates were added at the same time as the of the CoCl2.
# HIF [2] = assay: HIF reporter assay (HIF-activity-dependent Firefly-Luciferase) in NIH3T3 cells with CoCl2; type: cell-based, mouse; details: for cytotoxicity (endogenous control CMV-Renilla-Luciferase activity): CoCl2; for HIF activity (HIF inhibitory activity): CoCl2 200 μM, luminescence 24 hours after CoCl2
# Protocol: as §1, §2
# HIF [3] = assay: HIF reporter assay in ARPE19 cells with CoCl2; type: cell-based
# Protocol: as §1, §2
# Halofuginone, a halogenated derivative of ferbrifudine in Hydrangea macrophylla, was used as a sample to measure HIF activity on 661W cells, 3T3 cells, or ARPE19 cells in the assays described above. […] In FIGS. 11 to 13, “CoCl2+HF” indicates a system in which CoCl2 are added to the cells. […]
# bnip3 gene = assay: Real-time PCR gene expression in 661W cells with CoCl2; type: cell-based, mouse; details: CoCl2 200 μM, four hours after adding halofuginone
# Protocol: (§3) In the system of 661W cells to which the CoCl2 was added, the expression levels of the respective genes were measured in order to examine the inhibitory effects of halofuginone on the hif gene induced by the CoCl2 and the bnip3 gene, glut1 gene, pdk1 gene, and vegf gene which are the downstream genes. The expression level was measured by Real-time PCR. Specifically, 3×10^4 of 661 W cells were seeded on a 24-well plate, and CoCl2 was added at a density of 200 μM after cell immobilization. Halofuginone was added at the concentrations shown in FIG. 14 simultaneously with CoCl2. Four hours after adding halofuginone, RNAs were extracted, cDNA was synthesized, and then Real-time PCR was performed to determine the expression levels of the respective genes.
# glut1 gene = assay: as above; type: cell-based, mouse; details: CoCl2 200 μM, four hours after adding halofuginone
# Protocol: as §3
# pdk1 gene = assay: as above; type: cell-based, mouse; details: CoCl2 200 μM, four hours after adding halofuginone
# Protocol: as §3
# [4] = tested on: Mouse Retinal Photoinjury Model; assay: Mouse retinal photoinjury model, electroretinography; type: in vivo, BALB/c mice; details: 0.4 mg/kg intraperitoneally once daily for 5 days, white LED 3000 lux 1 hour, compared with PBS group
# Protocol: First, 0.4 mg/kg of halofuginone solution dissolved in PBS was administered intraperitoneally once daily to BALB/c mice 8 weeks old for 5 consecutive days (halofuginone group; n=4). The control group received the same amount of PBS (phosphate buffered saline) intraperitoneally (n=4) for the same period of time. Dark adaptation was performed on day 4 of the above period and then on day 5 a white LED of 3000 lux was irradiated for 1 hour. Dark adaptation was performed on day 6 after the light irradiation, and electroretinography was performed on day 7.
# [5] = tested on: Mouse Retinal Ischemia-Reperfusion Model; assay: Mouse retinal ischemia-reperfusion model, visual evoked potential (VEP); type: in vivo, C57BL6J mice; details: 0.2 mg/kg intraperitoneally, 1 Hz flashing light 3 cds/m^2
# Protocol: (§4) First, 0.2 mg/kg of halofuginone solution dissolved in PBS was administered intraperitoneally once daily to C57BL6J mice 8 weeks old (male; manufactured by Crea Japan) for 7 consecutive days (Halofuginone group; n=4). The control group received the same dose of PBS intraperitoneally for the same period (n=4).
# (§5) Retinal ischemia reperfusion treatment was then performed as follows.
# (§6) Nine-week-old mice were administered intraperitoneal anesthetics (three mixtures: medetomidine 0.75 mg/kg, midazolam 4 mg/kg, and butorphanol 5 mg/kg; hereinafter referred to as “MMB”). At the same time as anesthesia, Midrin P ophthalmic solution (Santen Pharmaceutical Co., Ltd.) was used to dilate both eyes.
# (§7) The physiological saline infusion bags were fixed at a height of 1.5 m from the laboratory table, inserted into the anterior chamber of the right eye of the mice with 35 G needles perfused with physiological saline, and perfusion was started. Intraocular pressure was measured every 5 minutes (Tonolab hand-held tonometer; manufactured by icare Corporation) to confirm that intraocular pressure was maintained at 85-99 mm Hg. […]
# The VEPs of the same individuals were then measured continuously. […]
# Differences (P1-N1) from each first negative crest to the next positive crest were measured as amplitudes, and latencies were also measured, and the mean of two times was evaluated as the value of one individual.
# [6] = tested on: Mouse Retinal Ischemia-Reperfusion Model; assay: Mouse retinal ischemia-reperfusion model, optical coherence tomography (OCT); type: in vivo, C57BL6J mice; details: 0.2 mg/kg intraperitoneally, radius 250 μm from optic nerve head
# Protocol: as §4, §5, §6, §7
# The entire thickness of the retina was evaluated using OCTs in order to measure the total thickness of the retina in the In vivo.
# Mice were fixed under MMB anesthesia and the total retinal thickness centered on the optic papilla was measured. […]
# [7] = tested on: mouse ganglion cell disorder model; details: vitreous administration of N-methyl-D-aspartic acid; previously reported by the inventors; cited from earlier work
SMILES,cytotoxicity (endogenous control CMV-Renilla-Luciferase activity) (HIF [1]),HIF activity (HIF inhibitory activity) (HIF [1]),cytotoxicity (endogenous control CMV-Renilla-Luciferase activity) (HIF [2]),HIF activity (HIF inhibitory activity) (HIF [2]),HIF activity (HIF inhibitory activity) (HIF [3]),expression level of the bnip3 gene (bnip3 gene),expression level of the glut1 gene (glut1 gene),expression level of the pdk1 gene (pdk1 gene),electroretinography amplitude (dark-adapted and light-adapted) [4],VEP amplitude (P1-N1) [5] [μV],total thickness of the retina by OCT [6] [μm],neuroprotective effect [7]
COc1cccc2c1C(=O)c1c(O)c3c(c(O)c1C2=O)C[C@@](O)(C(=O)CO)C[C@@H]3O[C@H]1C[C@H](N)[C@H](O)[C@H](C)O1 [doxorubicin],without cytotoxicity,significantly decreased,without cytotoxicity,significantly decreased,–,–,–,–,–,–,–,–
CC[C@@]1(O)C(=O)OCc2c1cc1n(c2=O)Cc2cc3c(CN(C)C)c(O)ccc3nc2-1 [topotecan],without cytotoxicity,–,without cytotoxicity,–,–,–,–,–,–,–,–,–
O=C(C[C@@H]1NCCC[C@H]1O)Cn1cnc2cc(Br)c(Cl)cc2c1=O [halofuginone],–,significant level-dependent HIF inhibitory activity,–,significant level-dependent HIF inhibitory activity,significant level-dependent HIF inhibitory activity,decreased,decreased,decreased,decrease in amplitude was suppressed,92±10.9,251.9±7.2,neuroprotective effect
